Reference: US8497260B2, “2-arylbenzothiophene derivatives or pharmaceutically acceptable salts thereof, preparation method thereof, and pharmaceutical composition for the diagnosis or treatment of degenerative brain disease containing the same as active ingredient” (Industry-University Cooperation Foundation Sogang University, priority 2009, dated 2013)

Target: T1, β-amyloid (Aβ1-42) fibrils (Homo sapiens, UniProt P05067)
T1 construct: β-Amyloid peptide (Aβ1-42, 1 mg, Bachem); purchased Bachem
Assay: Dissociation constant (Kd) of [125I]TZDM on β-amyloid fibrils
Conditions: Aβ1-42 fibrils 10 nM, 10% ethanol, room temperature 3 hours, nonspecific binding with 2 μM ThT
Method: β-Amyloid peptide (Aβ1-42, 1 mg, Bachem) was completely dissolved in 1 mL of DMSO, 9 mL of phosphate buffered saline (PBS) (pH 7.4) was added thereto and well mixed. The resulting mixture was incubated at 37° C. for 60 minutes to form β-amyloid fibrils, 0.5 mL was taken and transferred to each e-tube and placed into a refrigerator maintained at −80° C.
Here, the nonspecific binding was performed using 2 μM Thioflavin T (ThT).

T1 sequence (P05067 672-713 limits assumed): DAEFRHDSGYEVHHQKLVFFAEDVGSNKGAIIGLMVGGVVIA

Structure (SMILES): CN(C)c1ccc(-c2nc3ccc([125I])cc3s2)cc1 [[^125I]TZDM, 2-[4-(N,N-dimethylamino)phenyl]-6-[^125I]iodobenzothiazole]
- Kd: 0.13 nM
